Values of other authors, collected in patent US9629875B2, “Clostridium difficile sporicidal compositions” (Microdermis Corporation, priority 2014, dated 2017).

Test system: Bacillus subtilis
Settings: 0.1% L-alanine in the absence of sporicidal agents, after 4 hours

C[C@H](N)C(=O)O [L-alanine]
colony-forming unit (CFU) relative count: 116%
